target: T1, human TRPC6 (Homo sapiens, UniProt Q9Y210); assay: TRPC6 calcium flux assay (FLIPR, OAG-stimulated calcium influx); assay type: cell-based; conditions: HEK293 cells stably transfected with human TRPC6, read-out: hTRPC6 Potency
T1 construct: expressed in transfected cells
T1 sequence (Q9Y210 1-931): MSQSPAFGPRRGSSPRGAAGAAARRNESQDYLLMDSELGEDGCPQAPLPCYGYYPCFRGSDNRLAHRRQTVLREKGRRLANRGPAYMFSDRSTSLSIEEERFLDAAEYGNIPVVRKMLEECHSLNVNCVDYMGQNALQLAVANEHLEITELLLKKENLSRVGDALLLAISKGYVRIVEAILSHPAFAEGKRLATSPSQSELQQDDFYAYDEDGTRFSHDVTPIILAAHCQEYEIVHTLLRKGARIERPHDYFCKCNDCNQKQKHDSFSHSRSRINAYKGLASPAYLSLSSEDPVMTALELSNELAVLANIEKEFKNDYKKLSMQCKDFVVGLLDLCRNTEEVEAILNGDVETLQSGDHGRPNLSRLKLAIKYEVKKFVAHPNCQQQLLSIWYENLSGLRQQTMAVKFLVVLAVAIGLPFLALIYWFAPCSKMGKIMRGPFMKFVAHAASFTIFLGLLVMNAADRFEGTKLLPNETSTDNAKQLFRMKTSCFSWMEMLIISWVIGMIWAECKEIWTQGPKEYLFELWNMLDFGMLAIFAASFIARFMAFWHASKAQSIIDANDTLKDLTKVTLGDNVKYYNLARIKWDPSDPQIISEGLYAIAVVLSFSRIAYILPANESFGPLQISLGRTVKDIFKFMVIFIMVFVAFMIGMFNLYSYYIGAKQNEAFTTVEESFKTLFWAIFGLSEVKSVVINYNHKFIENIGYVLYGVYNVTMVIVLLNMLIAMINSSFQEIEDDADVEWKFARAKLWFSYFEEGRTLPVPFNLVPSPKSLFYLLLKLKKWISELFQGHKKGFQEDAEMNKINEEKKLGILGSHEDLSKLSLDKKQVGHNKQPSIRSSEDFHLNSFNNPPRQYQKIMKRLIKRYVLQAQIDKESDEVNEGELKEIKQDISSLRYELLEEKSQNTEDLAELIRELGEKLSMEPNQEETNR
Outline: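 HEK293 cells stably expressing human TRPC6, loaded with calcium dye 90–120 min at RT, then given compound for 25 min before OAG (50 uM final, 0.5% DMSO) in HEPES buffer pH 7.2 with 2 mM CaCl2. Background-subtracted FLIPR peak over 180 s normalized to OAG vs buffer; IC50 from dose plot.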

Row | IC50 [nM] | Molecule
1 | 1120 | C[C@H](CC#N)NC(=O)Cn1c(N2CC[C@@H](F)[C@H](N)C2)nc2ccc(F)cc21 [Example 670, 2-(2-((3R,4R)-3-amino-4-fluoropiperidin-1-yl)-6-fluoro-1H-benzo[d]imidazol-1-yl)-N-((R)-1-cyanopropan-2-yl)acetamide]
2 | 1430 | CCN(CCOC)C(=O)Cn1c(N2CC[C@@H](F)[C@H](N)C2)nc2ccc(F)cc21 [Example 671, 2-(2-((3R,4R)-3-amino-4-fluoropiperidin-1-yl)-6-fluoro-1H-benzo[d]imidazol-1-yl)-N-ethyl-N-(2-methoxyethyl)acetamide]
3 | 1660 | N[C@@H]1CN(c2nc3ccc(F)cc3n2CC(=O)N(CC(F)(F)F)[C@@H]2CCOC2)CC[C@H]1F [Example 672]
4 | > 3750 | N[C@@H]1CN(c2nc3ccc(F)cc3n2CC(=O)NCCC(F)(F)F)CC[C@H]1F [Example 673, 2-(2-((3R,4R)-3-amino-4-fluoropiperidin-1-yl)-6-fluoro-1H-benzo[d]imidazol-1-yl)-N-(3,3,3-trifluoropropyl)acetamide]
5 | > 1750 | C[C@@H](NC(=O)Cn1c(N2CC[C@@H](F)[C@H](N)C2)nc2ccc(F)cc21)c1ccccn1 [Example 674, 2-(2-((3R,4R)-3-amino-4-fluoropiperidin-1-yl)-6-fluoro-1H-benzo[d]imidazol-1-yl)-N-((R)-1-(pyridin-2-yl)ethyl)acetamide]
6 | > 3750 | N[C@@H]1CN(c2nc3ccc(F)cc3n2CC(=O)N[C@H]2CCOC2)CC[C@H]1F [Example 675, 2-(2-((3R,4R)-3-amino-4-fluoropiperidin-1-yl)-6-fluoro-1H-benzo[d]imidazol-1-yl)-N-((S)-tetrahydrofuran-3-yl)acetamide]
7 | > 3750 | N[C@@H]1CN(c2nc3ccc(F)cc3n2CC(=O)N[C@@H]2CCOC2)CC[C@H]1F [Example 676, 2-(2-((3R,4R)-3-amino-4-fluoropiperidin-1-yl)-6-fluoro-1H-benzo[d]imidazol-1-yl)-N-((R)-tetrahydrofuran-3-yl)acetamide]
8 | 88.1 | CC1CCN1C(=O)Cn1c(N2CC[C@@H](F)[C@H](N)C2)nc2ccc(F)cc21 (stereo partly drawn) [Example 677, 2-(2-((3R,4R)-3-amino-4-fluoropiperidin-1-yl)-6-fluoro-1H-benzo[d]imidazol-1-yl)-1-(2-methylazetidin-1-yl)ethan-1-one]
9 | 98.3 | C[C@H]1COCCN1C(=O)Cn1c(N2CC[C@@H](F)[C@H](N)C2)nc2ccc(F)cc21 [Example 678, 2-(2-((3R,4R)-3-amino-4-fluoropiperidin-1-yl)-6-fluoro-1H-benzo[d]imidazol-1-yl)-1-((S)-3-methylmorpholino)ethan-1-one]
10 | 153 | COC[C@@H]1COCCN1C(=O)Cn1c(N2CC[C@@H](F)[C@H](N)C2)nc2ccc(F)cc21 [Example 680, 2-(2-((3R,4R)-3-amino-4-fluoropiperidin-1-yl)-6-fluoro-1H-benzo[d]imidazol-1-yl)-1-((R)-3-(methoxymethyl)morpholino) ethan-1-one]
11 | 168 | C[C@@H]1COCCN1C(=O)Cn1c(N2CC[C@@H](F)[C@H](N)C2)nc2ccc(F)cc21 [Example 681, 2-(2-((3R,4R)-3-amino-4-fluoropiperidin-1-yl)-6-fluoro-1H-benzo[d]imidazol-1-yl)-1-((R)-3-methylmorpholino)ethan-1-one]
12 | 259 | C[C@H]1CCCN1C(=O)Cn1c(N2CC[C@@H](F)[C@H](N)C2)nc2ccc(F)cc21 [Example 682, 2-(2-((3R,4R)-3-amino-4-fluoropiperidin-1-yl)-6-fluoro-1H-benzo[d]imidazol-1-yl)-1-((S)-2-methylpyrrolidin-1-yl)ethan-1-one]
13 | 290 | CC1COCC(C)N1C(=O)Cn1c(N2CC[C@@H](F)[C@H](N)C2)nc2ccc(F)cc21 (stereo partly drawn) [Example 683, 2-(2-((3R,4R)-3-amino-4-fluoropiperidin-1-yl)-6-fluoro-1H-benzo[d]imidazol-1-yl)-1-(3,5-dimethylmorpholino)ethan-1-one]
14 | 524 | CCC1COCCN1C(=O)Cn1c(N2CC[C@@H](F)[C@H](N)C2)nc2ccc(F)cc21 (stereo partly drawn) [Example 684, 2-(2-((3R,4R)-3-amino-4-fluoropiperidin-1-yl)-6-fluoro-1H-benzo[d]imidazol-1-yl)-1-(3-ethylmorpholino)ethan-1-one]
15 | 1160 | N[C@@H]1CN(c2nc3ccc(F)cc3n2CC(=O)N2CCOC[C@@H]2C2CC2)CC[C@H]1F [Example 685, 2-(2-((3R,4R)-3-amino-4-fluoropiperidin-1-yl)-6-fluoro-1H-benzo[d]imidazol-1-yl)-1-((S)-3-cyclopropylmorpholino)ethan-1-one]
16 | 1570 | N[C@@H]1CN(c2nc3ccc(F)cc3n2CC(=O)N2CCOC[C@H]2CO)CC[C@H]1F [Example 686, 2-(2-((3R,4R)-3-amino-4-fluoropiperidin-1-yl)-6-fluoro-1H-benzo[d]imidazol-1-yl)-1-((R)-3-(hydroxymethyl)morpholino) ethan-1-one]
17 | 2080 | CC1(C)COCCN1C(=O)Cn1c(N2CC[C@@H](F)[C@H](N)C2)nc2ccc(F)cc21 [Example 687, 2-(2-((3R,4R)-3-amino-4-fluoropiperidin-1-yl)-6-fluoro-1H-benzo[d]imidazol-1-yl)-1-(3,3-dimethylmorpholino)ethan-1-one]

Row | Molecule | IC50 [nM]
18 | (3R,4R)-4-fluoro-1-(6- fluoro-1-((4- methoxypyridin-2- yl)methyl)-1H- benzo[d]imidazol-2- yl)piperidin-3-amine [Example 517] | 319

From US11332459B2 (TEIJIN PHARMA LIMITED, priority 2017, dated 2022)
